This note sets out measurements from patent publication US9951046B2, “TRPA1 modulators” (Algomedix, Inc., priority 2014, dated 2018).

Where two headings read alike, the source gives them in different places.

The target in the assay is T1, human TRPA1 (Homo sapiens, UniProt O75762).
T1 construct: expressed in transfected cells
The experiment in a line: Cell-based functional intracellular calcium ([Ca2+]i) assay, Fluo-4/Fluo-8, FlexStation, challenge with reference TRPA1 agonist (FFA, AITC or 4-HNE). The method, then: A stable HEK293 cell line that expresses human TRPA1 in an inducible manner was employed in this assay. […] The expression of TRPA1 was induced by including 1 μg/ml doxycycline in the culture medium. For the induced cells, ruthenium red (5 μM) was also added to minimize the constitutive TRPA1 channel activity and cells were used 14-18 hrs after induction. To measure [Ca^2+]i changes, cells were seeded in wells of 96-well plates at ˜100,000 cells/well and grown for 14-18 hrs to reach confluency. To prevent cell loss from subsequent washing, the wells were treated with 20 μg/ml polyornithine (MW>30,000, Sigma, St Louis, Mo.) for >15 min and rinsed once with Hank's balanced salt solution without Mg^2+ and Ca^2+. […] In some experiments, Fluo-8-AM was used instead of Fluo-4-AM as the calcium-sensitive fluorescent probe. Probenecid (2 mM) was included in all solutions to prevent the leakage of Fluo-4 or Fluo-8 from the cells. At the end of the incubation, cells were washed three times with ECS and placed in 80 μL of the same solution. Fluorescence changes were measured using a fluid handling integrated fluorescence plate reader, FlexStation (Molecular Devices, Sunnyvale, Calif.). Stock solutions of test compounds were initially solubilized in 100% DMSO and then serially diluted to achieve the desired final concentration. […] Drugs were diluted into ECS at 2× or 3× the desired final concentrations and delivered to the sample plate by an integrated robotic 8-channel pipettor at preprogrammed time points. […] Experiments were performed at 20-25° C. For certain experiments, 0.1% BSA was included with the cells and test compounds.
The kinetic data obtained at each test concentration of drug represents a series of fluorescent intensities as a function of time.
Using a sequential addition protocol, test compounds were initially applied to the cells loaded with Fluo-4 or Fluo-8 and fluorescence changes in each well monitored for 2.5 min. The plate was read again in a kinetic mode after a 15-30 min incubation with the test compounds after obtaining baseline values (about 30 s) and subsequent addition of challenge with a reference TRPA1 agonist. Reference TRPA1 agonists in testing each compound included at least one of flufenamic acid (FFA), allyl isothiocyanate (AITC) and 4-hydroxynonenal (4-HNE).
Antagonist activity can be expressed in terms of IC50 with respect to TRPA1 and agonist activity can be expressed in terms of EC50 with respect to TRPA1.
(In general: Calcium assays in cells follow changes in intracellular calcium, usually with a dye or a luminescent sensor.)

The mark [1] stands for this setting: HEK293 cells expressing human TRPA1, IC50 class after addition of reference TRPA1 agonist (FFA, AITC or 4-HNE), read-out: human TRPA1-HEK Activity.

T1 sequence (O75762 whole entry): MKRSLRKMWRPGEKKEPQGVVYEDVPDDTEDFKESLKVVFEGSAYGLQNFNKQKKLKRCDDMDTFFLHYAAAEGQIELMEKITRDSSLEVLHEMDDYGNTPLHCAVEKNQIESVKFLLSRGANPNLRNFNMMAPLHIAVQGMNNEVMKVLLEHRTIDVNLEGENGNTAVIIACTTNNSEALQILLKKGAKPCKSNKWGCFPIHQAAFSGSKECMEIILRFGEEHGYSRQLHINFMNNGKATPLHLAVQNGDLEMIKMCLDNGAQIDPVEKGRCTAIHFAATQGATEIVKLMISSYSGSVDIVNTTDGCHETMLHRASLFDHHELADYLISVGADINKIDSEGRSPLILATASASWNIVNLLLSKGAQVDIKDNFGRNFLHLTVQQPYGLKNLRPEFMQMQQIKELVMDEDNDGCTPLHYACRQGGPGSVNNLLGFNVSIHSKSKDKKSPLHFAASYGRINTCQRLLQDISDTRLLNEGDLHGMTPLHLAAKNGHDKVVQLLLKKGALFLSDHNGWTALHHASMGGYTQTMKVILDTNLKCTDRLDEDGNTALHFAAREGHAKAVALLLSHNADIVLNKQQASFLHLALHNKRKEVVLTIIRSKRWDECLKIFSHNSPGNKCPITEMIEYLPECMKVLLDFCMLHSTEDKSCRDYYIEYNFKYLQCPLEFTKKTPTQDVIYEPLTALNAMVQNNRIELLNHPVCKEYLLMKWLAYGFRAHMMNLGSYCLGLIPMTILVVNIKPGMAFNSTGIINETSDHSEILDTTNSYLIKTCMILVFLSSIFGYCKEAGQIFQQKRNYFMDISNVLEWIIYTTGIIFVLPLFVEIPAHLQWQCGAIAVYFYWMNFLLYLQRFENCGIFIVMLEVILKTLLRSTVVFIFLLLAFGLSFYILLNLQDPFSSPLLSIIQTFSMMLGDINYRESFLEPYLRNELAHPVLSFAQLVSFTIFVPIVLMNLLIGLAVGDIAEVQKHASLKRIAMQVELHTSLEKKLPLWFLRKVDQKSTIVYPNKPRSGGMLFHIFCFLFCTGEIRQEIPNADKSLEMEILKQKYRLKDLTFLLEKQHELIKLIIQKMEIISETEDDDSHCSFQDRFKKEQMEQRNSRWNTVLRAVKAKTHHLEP

As to `O=C(c1cc(-c2ccncc2)n(-c2ccccc2)n1)N1CCC2(CCCC2)CC1` [Compound 4], the IC50 under setting [1] is greater than 25 µM.

In the case of `O=C(c1cc(-c2ccncc2)n(-c2ccccc2)n1)N1CC2(CCCC2)C1` [Compound 6], the IC50 under setting [1] is greater than 25 µM.

On to `O=C(c1cc(-c2ccncc2)n(-c2ccccc2)n1)N1CCC2(CC1)C(=O)NCN2c1ccccc1` [Compound 8], for which the IC50 under setting [1] fell in the range of 5 to 25 µM.

Regarding `O=C(c1cc(-c2ccncc2)n(-c2ccccc2)n1)N1CCC2(CCCO2)CC1` [Compound 12], the IC50 under setting [1] was greater than 25 µM.

For `O=C(c1cc(-c2ccncc2)n(-c2ccccc2)n1)N1CCC2(CCNC2=O)CC1` [Compound 13], the IC50 under setting [1] is greater than 25 µM.

`O=C(c1cc(-c2ccncc2)n(-c2ccccc2)n1)N1CCC2(CC1)CC(F)(F)CO2` [Compound 16]: the IC50 under setting [1] lay in the range of 5 to 25 µM.

For the compound `O=C(c1cc(-c2ccncc2)n(-c2ccccc2)n1)N1CCC(n2c(=O)[nH]c3ccccc32)CC1` [Compound 25], under setting [1], the IC50 was greater than 25 µM.

`N#CC1(c2ccccc2)CCN(C(=O)c2cc(-c3ccncc3)n(-c3ccccc3)n2)CC1` [Compound 28]: the IC50 under setting [1] is greater than 25 µM.

For the compound `O=C1NC(=O)C2(CCN(C(=O)c3cc(-c4ccncc4)n(-c4ccccc4)n3)CC2)N1` [Compound 30], the IC50 under setting [1] was greater than 25 µM.

`O=C(c1cc(-c2ccncc2)n(-c2ccccc2)n1)N1CCC2(CC1)OCCO2` [Compound 31]: the IC50 is greater than 25 µM.

In the case of `O=C(c1cc(-c2ccncc2)n(-c2ccccc2)n1)N1CCN(c2ccc(C(F)(F)F)cn2)CC1` [Compound 32], the IC50 under setting [1] was greater than 25 µM.

As for `O=C(c1cc(-c2ccncc2)n(-c2ccccc2)n1)N1CCN(c2cc(C(F)(F)F)cc(C(F)(F)F)c2)CC1` [Compound 33], the IC50 under setting [1] was greater than 25 µM.

For `O=C(c1cc(-c2ccncc2)n(-c2ccccc2)n1)N1CCN(c2ncccc2C(F)(F)F)CC1` [Compound 34], under setting [1], the IC50 was greater than 25 µM.

Take `O=C(Nc1nc(-c2ccc(C(F)(F)F)cc2)cs1)c1cc(-c2ccncc2)n(-c2ccccc2)n1` [Compound 35]: under setting [1], the IC50 is greater than 25 µM.

As for `O=C(Nc1nc(-c2ccc(F)c(C(F)(F)F)c2)cs1)c1cc(-c2ccncc2)n(-c2ccccc2)n1` [Compound 37], the IC50 under setting [1] was greater than 25 µM.

Consider `O=C(Nc1ccc2[nH]c(=O)oc(=O)c2c1)c1cc(-c2ccncc2)n(-c2ccccc2)n1` [Compound 38], for which, under setting [1], the IC50 fell in the range of 5 to 25 µM.

In the case of `Cn1c(=O)oc2ccc(NC(=O)c3cc(-c4ccncc4)n(-c4ccccc4)n3)cc21` [Compound 39], the IC50 under setting [1] is greater than 25 µM.

In the case of `CN1C(=O)c2ccc(NC(=O)c3cc(-c4ccncc4)n(-c4ccccc4)n3)cc2C1=O` [Compound 40], the IC50 under setting [1] was greater than 25 µM.

As for `O=C(c1cc(-c2cccnc2)n(-c2ccc(C(F)(F)F)cc2)n1)N1CCC2(CC1)C(=O)NCN2c1ccc(F)cc1` [Compound 49], under setting [1], the IC50 was in the range of 0.001 to 5 µM.

Consider `Cc1cnc(-c2cc(C(=O)N3CCC4(CC3)C(=O)NCN4c3ccc(F)cc3)nn2-c2ccc(C(F)(F)F)cc2)c(C)n1` [Compound 52], for which the IC50 under setting [1] is greater than 25 µM.

Turning to `O=C(c1cc(-c2ccncc2)n(-c2ccc(C(F)(F)F)cc2)n1)N1CCC(N2C(=O)Cc3ccccc32)CC1` [Compound 54], the IC50 was greater than 25 µM.

With `O=C(c1cc(-c2ccncc2)n(-c2ccc(C(F)(F)F)cc2)n1)N1CCC2(CC1)C(=O)NCN2c1ccc(F)cc1` [Compound 55], the IC50 under setting [1] fell in the range of 0.001 to 5 µM.

`O=C(c1cc(-c2ccncc2)n(-c2ccc(C(F)(F)F)cc2)n1)N1CCC2(CC1)C(=O)NCN2c1ccc(Cl)cc1` [Compound 56]: under setting [1], the IC50 was greater than 25 µM.

As to `O=C(c1cc(-c2ccncc2)n(-c2ccc(C(F)(F)F)cc2)n1)N1CCC2(CC1)OCc1ccccc12` [Compound 57], the IC50 under setting [1] is greater than 25 µM.

With `O=C1OC2(CCN(C(=O)c3cc(-c4ccncc4)n(-c4ccc(C(F)(F)F)cc4)n3)CC2)c2ccccc21` [Compound 58], the IC50 under setting [1] is greater than 25 µM.

Consider `O=C(c1cc(-c2ccncc2)n(-c2ccc(C(F)(F)F)cc2)n1)N1CC(=O)N2CCc3ccccc3C2C1` (stereo not shown) [Compound 60], for which the IC50 under setting [1] is 5 to 25 µM.

As to `Cn1c(=O)n(C2CCN(C(=O)c3cc(-c4ccncc4)n(-c4ccc(C(F)(F)F)cc4)n3)CC2)c2ccccc21` [Compound 61], the IC50 under setting [1] was greater than 25 µM.

For `O=C(c1cc(-c2ccncc2)n(-c2ccc(C(F)(F)F)cc2)n1)N1CCC(N2C(=O)OC[C@H]2c2ccccc2)CC1` [Compound 62], under setting [1], the IC50 was greater than 25 µM.

As for `O=C(c1cc(-c2ccncc2)n(-c2ccc(C(F)(F)F)cc2)n1)N1CCC2(CC1)SCCS2` [Compound 63], under setting [1], the IC50 was greater than 25 µM.

Consider `O=C(c1cc(-c2ccncc2)n(-c2ccc(C(F)(F)F)cc2)n1)N1CCC(c2nc3ccccc3o2)CC1` [Compound 65], for which the IC50 under setting [1] is greater than 25 µM.

As for `O=C(Nc1ccc2c(c1)OC(F)(F)O2)c1cc(-c2ccncc2)n(-c2ccc(C(F)(F)F)cc2)n1` [Compound 66], under setting [1], the IC50 was greater than 25 µM.

Regarding `CN1C(=O)COc2cc(NC(=O)c3cc(-c4ccncc4)n(-c4ccc(C(F)(F)F)cc4)n3)ccc21` [Compound 67], under setting [1], the IC50 was greater than 25 µM.

As to `O=C1CSC2(CCN(C(=O)c3cc(-c4ccncc4)n(-c4ccc(C(F)(F)F)cc4)n3)CC2)N1` [Compound 68], the IC50 under setting [1] was greater than 25 µM.

In the case of `Cn1c(=O)c(=O)n(C)c2cc(NC(=O)c3cc(-c4ccncc4)n(-c4ccc(C(F)(F)F)cc4)n3)ccc21` [Compound 69], the IC50 under setting [1] is greater than 25 µM.

With `O=C(Nc1ccc2c(c1)COC2=O)c1cc(-c2ccncc2)n(-c2ccc(C(F)(F)F)cc2)n1` [Compound 70], under setting [1], the IC50 is 5 to 25 µM.

Take `CC1COC2(CCN(C(=O)c3cc(-c4ccncc4)n(-c4ccc(C(F)(F)F)cc4)n3)CC2)O1` (stereo not shown) [Compound 71]: the IC50 is greater than 25 µM.

With `O=C(c1cc(-c2ccncc2)n(-c2ccc(C(F)(F)F)cc2)n1)N1CCN2C(=O)OC[C@@H]2C1` [Compound 72], under setting [1], the IC50 lay within 5 to 25 µM.

On to `O=C(c1cc(-c2ccncc2)n(-c2ccc(C(F)(F)F)cc2)n1)N1CCC2(CC1)NCN(c1ccccc1)C2=O` [Compound 73], for which, under setting [1], the IC50 was greater than 25 µM.

Regarding `CCCC1COC2(CCN(C(=O)c3cc(-c4ccncc4)n(-c4ccc(C(F)(F)F)cc4)n3)CC2)O1` (stereo not shown) [Compound 74], the IC50 is greater than 25 µM.

For the compound `CN1C(=O)NC2(CCN(C(=O)c3cc(-c4ccncc4)n(-c4ccc(C(F)(F)F)cc4)n3)CC2)C1=O` [Compound 75], under setting [1], the IC50 is greater than 25 µM.

As for `O=C(c1cc(-c2ccncc2)n(-c2ccc(F)c(F)c2)n1)N1CCC(N2C(=O)Cc3ccccc32)CC1` [Compound 76], the IC50 is greater than 25 µM.

Take `O=C(c1cc(-c2ccncc2)n(-c2ccc(F)c(F)c2)n1)N1CCC2(CC1)C(=O)NCN2c1ccc(Cl)cc1` [Compound 78]: the IC50 under setting [1] was greater than 25 µM.

Consider `O=C(c1cc(-c2ccncc2)n(-c2ccc(F)c(F)c2)n1)N1CCC2(CC1)OCc1ccccc12` [Compound 79], for which the IC50 under setting [1] is greater than 25 µM.

For `O=C1OC2(CCN(C(=O)c3cc(-c4ccncc4)n(-c4ccc(F)c(F)c4)n3)CC2)c2ccccc21` [Compound 80], the IC50 under setting [1] is greater than 25 µM.

On to `O=C(c1cc(-c2ccncc2)n(-c2ccc(F)c(F)c2)n1)N1CC(=O)N2CCc3ccccc3C2C1` (stereo not shown) [Compound 82], for which the IC50 under setting [1] is greater than 25 µM.

For `Cn1c(=O)n(C2CCN(C(=O)c3cc(-c4ccncc4)n(-c4ccc(F)c(F)c4)n3)CC2)c2ccccc21` [Compound 83], under setting [1], the IC50 was greater than 25 µM.

For `O=C(c1cc(-c2ccncc2)n(-c2ccc(F)c(F)c2)n1)N1CCC(N2C(=O)OC[C@H]2c2ccccc2)CC1` [Compound 84], under setting [1], the IC50 was greater than 25 µM.

As for `O=C(c1cc(-c2ccncc2)n(-c2ccc(F)c(F)c2)n1)N1CCC2(CC1)SCCS2` [Compound 85], the IC50 under setting [1] is greater than 25 µM.

Regarding `O=C(c1cc(-c2ccncc2)n(-c2ccc(F)c(F)c2)n1)N1CCC(c2nc3ccccc3o2)CC1` [Compound 87], the IC50 under setting [1] is greater than 25 µM.

Consider `O=C(Nc1ccc2c(c1)OC(F)(F)O2)c1cc(-c2ccncc2)n(-c2ccc(F)c(F)c2)n1` [Compound 88], for which the IC50 under setting [1] was in the range of 5 to 25 µM.

Regarding `CN1C(=O)COc2cc(NC(=O)c3cc(-c4ccncc4)n(-c4ccc(F)c(F)c4)n3)ccc21` [Compound 89], under setting [1], the IC50 was greater than 25 µM.

In the case of `O=C1CSC2(CCN(C(=O)c3cc(-c4ccncc4)n(-c4ccc(F)c(F)c4)n3)CC2)N1` [Compound 90], the IC50 under setting [1] is greater than 25 µM.

Consider `Cn1c(=O)c(=O)n(C)c2cc(NC(=O)c3cc(-c4ccncc4)n(-c4ccc(F)c(F)c4)n3)ccc21` [Compound 91], for which the IC50 under setting [1] was greater than 25 µM.

In the case of `O=C(Nc1ccc2c(c1)COC2=O)c1cc(-c2ccncc2)n(-c2ccc(F)c(F)c2)n1` [Compound 92], the IC50 under setting [1] is greater than 25 µM.

Consider `CC1COC2(CCN(C(=O)c3cc(-c4ccncc4)n(-c4ccc(F)c(F)c4)n3)CC2)O1` (stereo not shown) [Compound 93], for which the IC50 is greater than 25 µM.
